Measured values reported in ChEMBL document CHEMBL1135289, “Anthranilate sulfonamide hydroxamate TACE inhibitors. Part 2: SAR of the acetylenic P1' group” (Bioorg Med Chem Lett, 2002).

Legend:
[1] = biological target: T1, Matrix metalloproteinase-9 (Homo sapiens, UniProt P14780); test: Inhibition of Matrix metalloprotease-9 at 1 uM
[2] = biological target: T2, Interstitial collagenase (Homo sapiens) (UniProt P03956); test: Inhibition of Matrix metalloprotease-1 at 10 uM
T2 sequence (whole entry): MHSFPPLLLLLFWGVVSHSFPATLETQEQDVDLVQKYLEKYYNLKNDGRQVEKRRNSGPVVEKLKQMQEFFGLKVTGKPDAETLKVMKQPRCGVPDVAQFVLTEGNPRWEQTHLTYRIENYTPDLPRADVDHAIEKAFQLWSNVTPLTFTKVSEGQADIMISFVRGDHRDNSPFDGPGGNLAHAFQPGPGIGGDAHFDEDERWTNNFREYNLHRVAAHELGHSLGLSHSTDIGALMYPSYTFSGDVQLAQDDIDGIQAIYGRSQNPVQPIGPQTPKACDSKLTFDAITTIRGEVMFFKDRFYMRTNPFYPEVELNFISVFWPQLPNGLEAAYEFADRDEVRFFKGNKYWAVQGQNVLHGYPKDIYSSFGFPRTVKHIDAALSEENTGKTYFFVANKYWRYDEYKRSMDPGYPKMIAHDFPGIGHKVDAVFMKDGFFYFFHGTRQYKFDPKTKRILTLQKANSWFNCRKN

Collagenase 3 [3] = biological target: T3, Collagenase 3 (Homo sapiens, UniProt P45452); test: Inhibition of Matrix metalloprotease-13 at 1 uM
[4] = biological target: Disintegrin and metalloproteinase domain-containing protein 17 (Homo sapiens, UniProt P78536); test: Inhibition of Tumor necrosis factor alpha converting enzyme
THP-1 [5] = test: Inhibition of LPS-stimulated TNF-alpha production in THP-1 cells at a concentration of 3 uM; type: functional; conditions: Homo sapiens
[6] = biological target: T1, Matrix metalloproteinase-9; test: Inhibition of Matrix metalloprotease-9 at 10 uM
[7] = biological target: T1, Matrix metalloproteinase-9; test: Inhibition of Matrix metalloprotease-9 activity
Interstitial collagenase = biological target: T4, Interstitial collagenase (Homo sapiens, UniProt P03956); test: Inhibition of Matrix metalloprotease-1
T4 sequence (P03956 whole entry): T2 sequence (whole entry)

Collagenase 3 [8] = biological target: T3, Collagenase 3; test: Inhibition of Matrix metalloprotease-13 activity
Collagenase 3 [9] = biological target: T3, Collagenase 3; test: Inhibition of Matrix metalloprotease-13
Collagenase 3 [10] = biological target: T3, Collagenase 3; test: Inhibition of Matrix metalloprotease-13 at 10 uM
THP-1 [11] = test: Compound was evaluated for its ability to inhibit […] production using THP-1 cellular assay at a concentration of 1 uM; type: functional; conditions: Homo sapiens
THP-1 [12] = test: Compound was evaluated for its ability to inhibit LPS-stimulated TNF-alpha production in THP-1 cells at a concentration of 1 uM; type: functional; conditions: Homo sapiens

T1 sequence (P14780 whole entry): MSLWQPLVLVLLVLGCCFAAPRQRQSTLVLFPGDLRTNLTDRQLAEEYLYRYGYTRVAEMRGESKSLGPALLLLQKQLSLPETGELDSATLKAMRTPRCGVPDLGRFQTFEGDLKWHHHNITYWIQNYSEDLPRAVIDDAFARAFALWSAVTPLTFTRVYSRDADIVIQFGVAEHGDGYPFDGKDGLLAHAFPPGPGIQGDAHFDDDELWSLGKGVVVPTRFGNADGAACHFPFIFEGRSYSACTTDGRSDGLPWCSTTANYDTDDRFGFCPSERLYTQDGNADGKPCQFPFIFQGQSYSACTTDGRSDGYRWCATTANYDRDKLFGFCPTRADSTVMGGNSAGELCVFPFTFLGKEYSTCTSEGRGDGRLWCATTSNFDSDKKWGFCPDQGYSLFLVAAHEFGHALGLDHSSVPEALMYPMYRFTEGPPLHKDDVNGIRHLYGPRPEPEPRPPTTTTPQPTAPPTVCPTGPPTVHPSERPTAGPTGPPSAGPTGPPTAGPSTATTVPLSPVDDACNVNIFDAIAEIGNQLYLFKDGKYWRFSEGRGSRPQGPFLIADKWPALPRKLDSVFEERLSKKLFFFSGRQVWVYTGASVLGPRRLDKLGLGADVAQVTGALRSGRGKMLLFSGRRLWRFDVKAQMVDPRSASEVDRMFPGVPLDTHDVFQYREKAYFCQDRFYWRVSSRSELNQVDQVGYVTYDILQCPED
Chain of Disintegrin and metalloproteinase domain-containing protein 17 (P78536 whole entry, the tested form may be a part): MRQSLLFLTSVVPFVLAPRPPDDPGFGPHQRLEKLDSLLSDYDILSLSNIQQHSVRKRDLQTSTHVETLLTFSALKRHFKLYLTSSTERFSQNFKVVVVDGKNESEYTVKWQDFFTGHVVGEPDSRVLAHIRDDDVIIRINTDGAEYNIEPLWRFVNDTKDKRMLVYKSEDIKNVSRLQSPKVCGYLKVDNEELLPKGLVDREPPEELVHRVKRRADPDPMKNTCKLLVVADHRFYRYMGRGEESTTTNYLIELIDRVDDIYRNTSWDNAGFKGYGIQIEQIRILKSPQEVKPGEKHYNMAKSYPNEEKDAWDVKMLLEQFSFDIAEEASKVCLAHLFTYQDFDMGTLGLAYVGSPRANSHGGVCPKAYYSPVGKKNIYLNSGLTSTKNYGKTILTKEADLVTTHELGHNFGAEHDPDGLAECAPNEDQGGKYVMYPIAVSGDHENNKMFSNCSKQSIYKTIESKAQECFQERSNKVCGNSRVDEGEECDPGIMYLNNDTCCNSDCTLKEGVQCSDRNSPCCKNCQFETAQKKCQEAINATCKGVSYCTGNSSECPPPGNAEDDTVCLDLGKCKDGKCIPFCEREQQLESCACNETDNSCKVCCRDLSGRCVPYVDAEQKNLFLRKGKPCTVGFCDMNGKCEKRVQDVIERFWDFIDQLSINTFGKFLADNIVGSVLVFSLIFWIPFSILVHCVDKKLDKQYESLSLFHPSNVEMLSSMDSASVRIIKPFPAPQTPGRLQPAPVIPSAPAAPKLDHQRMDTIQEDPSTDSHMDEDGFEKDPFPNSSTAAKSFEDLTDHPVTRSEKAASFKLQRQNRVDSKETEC

Row | inhibition [2] [%] | Compound | IC50 [4] [nM] | inhibition at 3 µM (THP-1 [5]) [%] | also measured
1 | 35 | CC#CCOc1ccc(S(=O)(=O)N(C)c2ccccc2C(=O)NO)cc1 | 27 | 32 | inhibition [6]: 61%
2 | – | CC#CCOc1ccc(S(=O)(=O)N(C)c2c(C(=O)NO)cc(-c3ccccc3)cc2C2CCN(C)CC2)cc1 | 42 | 95 | IC50 [7]: 28 nM; IC50 (Interstitial collagenase): 1920 nM; IC50 (Collagenase 3 [8]): 47 nM
3 | 26 | CNCC#CCOc1ccc(S(=O)(=O)N(C)c2c(C)cc(Br)cc2C(=O)NO)cc1 | – | – | –
4 | – | COc1ccc(S(=O)(=O)N(C)c2c(C(=O)NO)cc(Br)cc2C2CCN(C)CC2)cc1 | 26 | 42 | IC50 [7]: 2 nM; IC50 (Interstitial collagenase): 194 nM; IC50 (Collagenase 3 [8]): 5 nM
5 | – | CC#CCOc1ccc(S(=O)(=O)N(C)c2c(C(=O)NO)cc(Br)cc2C2CCN(C)CC2)cc1 | 25 | 94 | IC50 [7]: 166 nM; IC50 (Collagenase 3 [9]): 252 nM
6 | 21 | CCN(CC)CC#CCOc1ccc(S(=O)(=O)N(C)c2c(C)cc(Br)cc2C(=O)NO)cc1 | – | – | –
7 | 32 | Cc1cc(Br)cc(C(=O)NO)c1N(C)S(=O)(=O)c1ccc(OCC#CCNCCCN(C)C)cc1 | – | – | –
8 | 6 | CC#CCOc1ccc(S(=O)(=O)Nc2c(C)cccc2C(=O)NO)cc1 | 84 | 7 | inhibition (Collagenase 3 [10]): 42%
9 | – | CC#CCOc1ccc(S(=O)(=O)N(C)c2c(C)cc(Br)cc2C(=O)NO)cc1 | – | – | inhibition at 1 µM (THP-1 [11]): 59%
10 | 85 | CC#CCOc1ccc(S(=O)(=O)N(C)c2c(C)cccc2C(=O)NO)cc1 | 28 | 55 | IC50 (Collagenase 3 [8]): 416 nM
11 | – | Cc1cc(Br)cc(C(=O)NO)c1N(C)S(=O)(=O)c1ccc(OCC#CCO)cc1 | – | – | inhibition at 1 µM (THP-1 [12]): 69%
12 | – | CCCCOc1ccc(S(=O)(=O)N(C)c2c(C)cc(Br)cc2C(=O)NO)cc1 | 67 | 0 | –

Row | Compound | inhibition [2] [%] | IC50 [4] [nM] | inhibition at 3 µM (THP-1 [5]) [%] | also measured
13 | Cc1cc(Br)cc(C(=O)NO)c1N(C)S(=O)(=O)c1ccc(OCc2cccnc2)cc1 | 42 | 28 | 9 | inhibition [1]: 28%; inhibition (Collagenase 3 [3]): 48%
